In patent publication US11970498B2, “CDK2 inhibitors” (BLUEPRINT MEDICINES CORPORATION, priority 2021, dated 2024):

Key:
CDK2/Cyclin E = CDK2/Cyclin E (Homo sapiens, UniProt P24941); experiment: CDK2/Cyclin E biochemical phosphorylation assay (Caliper mobility shift); conditions: apparent IC50; 1.0 mM ATP or ATP Km; 1.25 nM enzyme; 25° C.; read-out: CDK2/cyclin E1 IC50
Description: (§1) Inhibitory effects of the compounds of the disclosure were measured in biochemical assays that measure the enzymatic phosphorylation activity of CDK enzyme in complex of Cyclin proteins phosphorylates 7.5 micromolar fluorescently labelled peptide substrate, 5-FAM-QSPKKG-CONH2, (FL-Peptide 18, Perkin Elmer, 760362) in the presence of adenosine-5′-triphosphate (ATP) and varying concentrations of the test compound in 100 mM 2-[4-(2-hydroxyethyl)piperazin-1-yl] ethanesulfonic acid (HEPES), pH 7.5, 10 mM MgCl2, 0.015% Brij-35, 1 mM dithiothreitol (DTT), 1.0% dimethylsulfoxide (DMSO). Assays were performed at 1.0 mM ATP or at ATP Km of the CDK enzymes in complex with Cyclin proteins. Reactions proceeded until between 10% to 20% total peptides were phosphorylated at room temperature (25° C.) and were terminated with 35 mM 2,2′,2″,2′″-(ethane-1,2-diyldinitrilo)tetraacetic acid (EDTA). Product was detected using the Caliper mobility shift detection method where the phosphorylated peptide (product) and substrate were electrophoretically separated and measured. Percent activity was plotted against log concentration of compound and points to generate an apparent IC50. The following CDK enzymes in complex with different cyclin proteins were used in these assays: • CDK1/Cyclin B1, GST-tag (BPS, 40454), 1.5 nM used in the assay • CDK2/Cyclin E (Eurofins, 14-475), 1.25 nM used in the assays
(§2) For inhibitory activity against CDK2/Cyclin E mutant, the following designations are used: ≤10 nM=A; >10-20 nM=B; >20-30 nM=C; >30-100 nM=D and >100=E. For inhibition CDK1/Cyclin B1, GST-tag: ≥500 nM=A; <100-500 nM=B; <100 nM=C.

CDK1/Cyclin B1, GST-tag = target: T1, CDK1/Cyclin B1, GST-tag (Homo sapiens, UniProt P06493); experiment: CDK1/Cyclin B1 biochemical phosphorylation assay (Caliper mobility shift); conditions: apparent IC50; 1.0 mM ATP or ATP Km; 1.5 nM enzyme; 25° C.
T1 construct: GST
T1 sequence (P06493 whole entry): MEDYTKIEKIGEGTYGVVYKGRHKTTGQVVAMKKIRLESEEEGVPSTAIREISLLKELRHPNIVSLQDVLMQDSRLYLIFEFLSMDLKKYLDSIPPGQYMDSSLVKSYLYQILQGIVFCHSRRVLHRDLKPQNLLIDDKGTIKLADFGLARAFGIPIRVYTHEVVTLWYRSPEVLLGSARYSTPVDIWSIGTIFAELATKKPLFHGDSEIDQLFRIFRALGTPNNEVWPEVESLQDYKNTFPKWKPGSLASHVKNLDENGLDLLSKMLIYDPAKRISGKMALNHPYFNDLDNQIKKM
T1 sequence (P14635 whole entry partner): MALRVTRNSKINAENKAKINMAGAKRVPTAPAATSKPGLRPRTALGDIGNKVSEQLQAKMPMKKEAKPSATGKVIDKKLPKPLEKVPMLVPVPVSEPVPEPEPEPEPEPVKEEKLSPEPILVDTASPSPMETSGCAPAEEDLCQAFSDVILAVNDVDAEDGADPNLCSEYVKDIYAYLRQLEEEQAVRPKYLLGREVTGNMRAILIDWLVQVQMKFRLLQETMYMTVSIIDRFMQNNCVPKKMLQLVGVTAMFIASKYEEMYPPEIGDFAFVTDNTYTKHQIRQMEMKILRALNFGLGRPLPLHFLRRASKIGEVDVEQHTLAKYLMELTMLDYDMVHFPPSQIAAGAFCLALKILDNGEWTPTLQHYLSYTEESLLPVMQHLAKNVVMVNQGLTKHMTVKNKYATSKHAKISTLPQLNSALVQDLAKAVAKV
Description: as §1, §2

| Compound | IC50 (CDK2/Cyclin E) [nM] | IC50 (CDK1/Cyclin B1, GST-tag) [nM] |
| --- | --- | --- |
| O[C@H]1C[C@H](n2ncc3ncc(Nc4cc(OC(F)F)[nH]n4)nc32)C1 (single isomer, unassigned) [Example 145, (1r,3r)-3-(6-((5-(difluoromethoxy)-1H-pyrazol-3-yl)amino)-1H-pyrazolo[3,4-b]pyrazin-1-yl)cyclobutan-1-ol or (1s,3s)-3-(6-((5-(difluoromethoxy)-1H-pyrazol-3-yl)amino)-1H-pyrazolo[3,4-b]pyrazin-1-yl)cyclobutan-1-ol] | > 100 | ≥ 500 |
| Cc1nn(CC2CCOCC2)c2nc(Nc3cc(OC(F)F)[nH]n3)cnc12 [Example 87, N-(5-(difluoromethoxy)-1H-pyrazol-3-yl)-3-methyl-1-((tetrahydro-2H-pyran-4-yl)methyl)-1H-pyrazolo[3,4-b]pyrazin-6-amine] | ≤ 10 | 100 to 500 |
| FC(F)Oc1cc(Nc2cnc3cnn([C@@H](C(F)F)C4CCOCC4)c3n2)n[nH]1 (single isomer, unassigned) [Example 29, (R)-1-(2,2-difluoro-1-(tetrahydro-2H-pyran-4-yl)ethyl)-N-(5-(difluoromethoxy)-1H-pyrazol-3-yl)-1H-pyrazolo[3,4-b]pyrazin-6-amine or (S)-1-(2,2-difluoro-1-(tetrahydro-2H-pyran-4-yl)ethyl)-N-(5-(difluoromethoxy)-1H-pyrazol-3-yl)-1H-pyrazolo[3,4-b]pyrazin-6-amine] | ≤ 10 | ≥ 500 |
| O[C@H]1CC[C@@H](n2ncc3ncc(Nc4cc(OC(F)F)[nH]n4)nc32)C1 (single isomer, unassigned) [Example 209] | > 100 | ≥ 500 |
| O[C@H]1CC[C@@H](n2ncc3ncc(Nc4cc(OC(F)F)[nH]n4)nc32)C1 (single isomer, unassigned) [Example 210] | > 100 | ≥ 500 |
| FC(F)Oc1cc(Nc2cnc3cnn(CC4CC5CCC(C4)O5)c3n2)n[nH]1 (centres unmarked) [Example 99, 1-((8-oxabicyclo[3.2.1]octan-3-yl)methyl)-N-(5-(difluoromethoxy)-1H-pyrazol-3-yl)-1H-pyrazolo[3,4-b]pyrazin-6-amine] | ≤ 10 | ≥ 500 |
| C[C@@H](c1cccnc1F)n1nc(Cl)c2ncc(Nc3cc(OC(F)F)[nH]n3)nc21 [Example 17, (S)-3-chloro-N-(5-(difluoromethoxy)-1H-pyrazol-3-yl)-1-(1-(2-fluoropyridin-3-yl)ethyl)-1H-pyrazolo[3,4-b]pyrazin-6-amine] | ≤ 10 | 100 to 500 |
| FC(F)Oc1cc(Nc2cnc3cnn(C4CCC(F)(F)CC4)c3n2)n[nH]1 [Example 44, 1-(4,4-difluorocyclohexyl)-N-(5-(difluoromethoxy)-1H-pyrazol-3-yl)-1H-pyrazolo[3,4-b]pyrazin-6-amine] | 10 to 20 | ≥ 500 |
| FC(F)Oc1cc(Nc2cnc3cnn(C[C@H]4C[C@@H]5[C@H](C4)C5(F)F)c3n2)n[nH]1 [Example 126, 1-(((1R,3r,5S)-6,6-difluorobicyclo[3.1.0]hexan-3-yl)methyl)-N-(5-(difluoromethoxy)-1H-pyrazol-3-yl)-1H-pyrazolo[3,4-b]pyrazin-6-amine] | ≤ 10 | < 100 |

More lines, now with the values ahead:

| IC50 (CDK2/Cyclin E) [nM] | IC50 (CDK1/Cyclin B1, GST-tag) [nM] | Compound |
| --- | --- | --- |
| ≤ 10 | ≥ 500 | C[C@@H](c1ccccc1F)n1ncc2ncc(Nc3cc(OC(F)F)[nH]n3)nc21 [Example 46, (S)-N-(5-(difluoromethoxy)-1H-pyrazol-3-yl)-1-(1-(2-fluorophenyl)ethyl)-1H-pyrazolo[3,4-b]pyrazin-6-amine] |
| ≤ 10 | 100 to 500 | CC1(Cn2ncc3ncc(Nc4cc(OC(F)F)[nH]n4)nc32)CCOCC1 [Example 110, N-(5-(difluoromethoxy)-1H-pyrazol-3-yl)-1-((4-methyltetrahydro-2H-pyran-4-yl)methyl)-1H-pyrazolo[3,4-b]pyrazin-6-amine] |
| ≤ 10 | 100 to 500 | COc1cc(Nc2cnc3cnn(Cc4cccnc4F)c3n2)n[nH]1 [Example 137, 1-((2-fluoropyridin-3-yl)methyl)-N-(5-methoxy-1H-pyrazol-3-yl)-1H-pyrazolo[3,4-b]pyrazin-6-amine] |
| 20 to 30 | ≥ 500 | OC[C@@H](c1cccnc1)n1ncc2ncc(Nc3cc(OC(F)F)[nH]n3)nc21 [Example 204, (R)-2-(6-((5-(difluoromethoxy)-1H-pyrazol-3-yl)amino)-1H-pyrazolo[3,4-b]pyrazin-1-yl)-2-(pyridin-3-yl)ethan-1-ol] |
| ≤ 10 | ≥ 500 | FC(F)Oc1cc(Nc2cnc3cnn([C@@H](c4cccnc4)C4CC4)c3n2)n[nH]1 (single isomer, unassigned) [Example 147, (R)-1-(cyclopropyl(pyridin-3-yl)methyl)-N-(5-(difluoromethoxy)-1H-pyrazol-3-yl)-1H-pyrazolo[3,4-b]pyrazin-6-amine or (S)-1-(cyclopropyl(pyridin-3-yl)methyl)-N-(5-(difluoromethoxy)-1H-pyrazol-3-yl)-1H-pyrazolo[3,4-b]pyrazin-6-amine] |
| ≤ 10 | ≥ 500 | [2H]C([2H])(c1cccnc1)n1ncc2ncc(Nc3cc(OC(F)F)[nH]n3)nc21 [Example 224, N-(5-(difluoromethoxy)-1H-pyrazol-3-yl)-1-(pyridin-3-ylmethyl-d2)-1H-pyrazolo[3,4-b]pyrazin-6-amine] |
| 30 to 100 | ≥ 500 | CCC([C@@H](C)O)n1ncc2ncc(Nc3cc(OC(F)F)[nH]n3)nc21 (single isomer, unassigned) [Example 202] |
| 20 to 30 | ≥ 500 | FC(F)Oc1cc(Nc2cnc3cnn(Cc4ccccc4)c3n2)n[nH]1 [Example 36, 1-benzyl-N-(5-(difluoromethoxy)-1H-pyrazol-3-yl)-1H-pyrazolo[3,4-b]pyrazin-6-amine] |
| ≤ 10 | 100 to 500 | CC(C)(C1CC1)n1ncc2ncc(Nc3cc(OC(F)F)[nH]n3)nc21 [Example 23, 1-(2-cyclopropylpropan-2-yl)-N-(5-(difluoromethoxy)-1H-pyrazol-3-yl)-1H-pyrazolo[3,4-b]pyrazin-6-amine] |
| 20 to 30 | ≥ 500 | COc1cc(Nc2cnc3cnn(Cc4ccc(F)nc4)c3n2)n[nH]1 [Example 76, 1-((6-fluoropyridin-3-yl)methyl)-N-(5-methoxy-1H-pyrazol-3-yl)-1H-pyrazolo[3,4-b]pyrazin-6-amine] |
| 20 to 30 | ≥ 500 | N#C[C@@]1(Cn2ncc3ncc(Nc4cc(OC(F)F)[nH]n4)nc32)CCOC1 (single isomer, unassigned) [Example 169, (S)-3-((6-((5-(difluoromethoxy)-1H-pyrazol-3-yl)amino)-1H-pyrazolo[3,4-b]pyrazin-1-yl)methyl)tetrahydrofuran-3-carbonitrile or (R)-3-((6-((5-(difluoromethoxy)-1H-pyrazol-3-yl)amino)-1H-pyrazolo[3,4-b]pyrazin-1-yl)methyl)tetrahydrofuran-3-carbonitrile] |
| 10 to 20 | ≥ 500 | COc1cc(Nc2cnc3cnn([C@@H](C)C4COC4)c3n2)n[nH]1 [Example 71, (S)-N-(5-methoxy-1H-pyrazol-3-yl)-1-(1-(oxetan-3-yl)ethyl)-1H-pyrazolo[3,4-b]pyrazin-6-amine] |
| ≤ 10 | ≥ 500 | FC(F)Oc1cc(Nc2cnc3cnn(C[C@@H]4COCCO4)c3n2)n[nH]1 [Example 88, (R)-1-((1,4-dioxan-2-yl)methyl)-N-(5-(difluoromethoxy)-1H-pyrazol-3-yl)-1H-pyrazolo[3,4-b]pyrazin-6-amine] |
